Test results reported in patent US12186342B2, “Autologous irradiated whole cell tumor vaccines lentivirally engineered to express CD80, IL-15 and IL-15 receptor alpha” (The Regents of the University of California, priority 2016, dated 2025).

Key:
Assay type in all cases: in vivo, mice
[1] = tested on: 32Dp210 leukemia; assay: Dose-finding studies of chemotherapeutic regimens in advanced 32Dp210 leukemia; details: data not shown
Method: (§1) The major clinical application of an autologous AML vaccine strategy would be as post-remission immunotherapy to prolong relapse free survival in patients with MRD. To recapitulate this clinical setting, we developed a murine model of MRD for testing our vaccine. Initially, several chemotherapeutic regimens, previously shown to induce transient responses in 32Dp210 leukemia, were tested^48. […] A different strategy was therefore adopted for achieving post-remission MRD in mice with high leukemia burdens by lentivirally engineering a 32Dp210 cell line to express the herpes thymidine kinase (HSV-TK) suicide gene^36. Using this approach, treatment with ganciclovir (GCV) could be used to induce remission without the confounding immune and cytopenic effects of conventional chemotherapy^49. In this context, GCV treatment should not have a direct impact on leukemia-associated immune deviation, except as associated with reduction of tumor burden, since effects of GCV are primarily restricted to suppression of marrow proliferation, but not inhibition of immune function^50.

[2] = tested on: 32Dp210-luc-HSV-TK+ leukemia; assay: Post-remission vaccination in the MRD model
Description: FIG. 18A-FIG. 18B depict the efficacy of the 32Dp210 vaccine as post-remission therapy to treat MRD. (FIG. 18A) In vivo bioluminescence analyses of 32Dp210-luc-HSV-TK leukemic mice undergoing GCV treatment with or without post-remission vaccination with 32Dp210-CD80-IL-15-IL-15Rα cells. Mice were inoculated with 1×10^5 32Dp210 cells on day 0 as indicated by the schema at the top of the figure. On day 10 mice underwent in vivo bioluminescence imaging and average photon counts per animal were plotted (upper set of bar graphs). N1-N5 represents normal, non-tumor bearing mice injected with luciferin on the same day, to establish background levels. Lanes 1-15 indicate mice inoculated with leukemia and subsequently treated with GCV according to the schema at the top of the figure. Gray bars in lanes 1-5 indicate IVIS analyses of mice that would receive 14 days GCV treatment and no further intervention; Black bars in lanes 6-15 depict IVIS analyses of mice treated with 14 days of GCV treatment that would be followed by serial vaccination with irradiated 32Dp210-IL-15/IL-15Rα/CD80 cells beginning at day 17. Lower panel of bar graphs depicts semi-quantitative IVIS studies after 5 days of GCV administration (day 15) in the same animals analyzed in the upper panel of bar graphs at day 10 after tumor inoculum. […]

[3] = Effect of GCV on CBC; details: after 2 weeks of treatment
Method: (§2) At day 10 after IV injection of 1×10^5 32Dp210-luc cells, all mice had detectable leukemia by IVIS, and began a 14 day treatment (50 mg/kg/day) with Ganciclovir (GCV) (APP Pharmaceuticals, LLC, Schaumberg, IL). A higher dose of 100 mg GCV/kg/day was administered to confirm that GCV had minimal or no effects on blood counts (Table 1).
as §1

[4] = tested on: 32Dp210-luc-HSV-TK+ leukemia; assay: Minimal residual disease model: GCV remission induction
Method: FIG. 17A-FIG. 17C depict development of a minimal residual diseased (MRD) model in 32Dp210 leukemia. (FIG. 17A) In vivo bioluminescence analysis of effects of ganciclovir (GCV) treatment of 32Dp210-luc-HSV-TK+ leukemia. Mice inoculated IV with 32Dp210-luc-HSV-TK+ leukemia on day 0 were treated for 14 days with GCV (50 mg/kg) beginning at day 14. Left panel: Day 14 after tumor inoculation, Right panel: Day 28 after tumor inoculation and day 14 of GCV treatment. […] Mean photon counts+S.E.M. per animal are plotted on the y-axis after imaging at day 14 (white bars) and day 28 after tumor inoculation (gray bars). Uninjected controls (n=5) represent normal, non-tumor bearing mice injected with luciferin to establish background levels of in vivo bioluminescence used to define “complete remission”. […] Leukemic mice with tumor progression despite GCV administration (Non-responders, n=3) are depicted in the last two lanes on the right. […] Comparison of the percentage of 32Dp210-GFP+HSVTK+ cells in peripheral blood, spleen and bone marrow of responding mice (MRD). The percentage of GFP+ cells detected by flow cytometric analysis of blood (filled circle), spleen (open triangle), and bone marrow (filled diamonds) from each mouse achieving IVIS defined remission with MRD, are indicated on the Y axis. The mean for each group is designated by a horizontal line for each group as well as the S.E.M. Mice with MRD defined by semi-quantitative in vivo bioluminescence analyses had <5% leukemic cells in all tissues examined consistent with the clinical/pathological definition of leukemic remission.
as §2
To validate this model, mice were treated daily with GCV once 32Dp210 leukemia was evident by IVIS. […] (FIG. 17A). […] To assess responses after GCV treatment, the frequency of 32Dp210-GFP+/HSV-TK+ cells in spleen, blood, and bone marrow were quantified by flow cytometric analysis (FIG. 17C). […] Lower numbers of GFP+ leukemia cells were detected in spleen after 14 days of GCV.

Row | Compound | outcome of dose-finding studies in leukemic mice [1] | relapse after remission ([2]; 14-day GCV with no further therapy) | response by in vivo bioluminescence ([2]; day 5 of GCV administration (day 15), 1×10^5 cells inoculated) | Lymphocytes ([3]; 100 mg GCV/kg/day) | Monocytes ([3]; 100 mg GCV/kg/day) | Neutrophils ([3]; 100 mg GCV/kg/day) | White Blood Cells ([3]; 100 mg GCV/kg/day) | decline in WBC, neutrophils, hemoglobin, or monocytes [3] | number of peripheral lymphocytes ([3]; remained within the normal range) | mice showing remission ([4]; GCV begun on day 14 after tumor inoculation, read two weeks later (day 28)) | blasts in bone marrow ([4]; GCV-treated mice in remission) | GFP+ cells in BM ([4]; GCV-treated mice in remission, n=7/7) | GFP+ leukemia cells in spleen ([4]; after 14 days of GCV) | leukemic cells in all tissues examined ([4]; mice with MRD, blood, spleen, bone marrow)
1 | Nc1ccn([C@@H]2O[C@H](CO)[C@@H](O)[C@@H]2O)c(=O)n1 [cytosine arabinoside] | either ineffective, or resulted in both toxicity and lethality |  |  |  |  |  |  |  |  |  |  |  |  | 
2 | Nc1nc(O)c2ncn(COC(CO)CO)c2n1 [GCV, ganciclovir] |  | eventually relapsed | most of the leukemic mice had major responses | 2.036 ± 0.279 k/μL | 0.310 ± 0.0364 k/μL | 4.141 ± 0.580 k/μL | 6.638 ± 0.575 k/μL | no significant decline | only a small reduction | Seven of 10 | < 5% | < 0.5% | Lower numbers | < 5%
